Reference: publication PMC11451730, “A Fragment-Based Screen for Inhibitors of Escherichia coli N5-CAIR Mutase” (Research Square, 2024)

How the values were obtained:
[1] = target: T1, E. coli N5-CAIR mutase (Escherichia coli, UniProt P0AG18); test: biochemical; format: biochemical
T1 construct: His-tag (inferred from cobalt-resin/imidazole purification); made in house; host or cells: E. coli BL21(DE3), plasmid pJK057 (Addgene)
T1 sequence (P0AG18 1-169): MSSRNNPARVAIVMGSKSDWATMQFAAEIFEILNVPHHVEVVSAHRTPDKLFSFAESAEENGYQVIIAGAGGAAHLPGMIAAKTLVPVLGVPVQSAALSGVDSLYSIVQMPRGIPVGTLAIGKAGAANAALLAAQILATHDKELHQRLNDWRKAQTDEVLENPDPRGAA

[2] = test system: Gallus gallus AIR carboxylase; test: Inhibition of AIR carboxylase by NAIR (literature); format: biochemical
[3] = target: Gallus gallus AIR carboxylase; settings: cited from earlier work
[4] = target: T1, E. coli N5-CAIR mutase; test: Thermal shift assay (thermal binding assay); settings: NAIR 20 μM, eight replicates; enzyme alone 57 ± 0.36°C
[5] = target: bacterial N5-CAIR mutase; settings: bacterial enzyme; cited from earlier work

Structure (SMILES)	Ki [1] [µM]	mechanism of inhibition [1]	other results
CN1CCCC(Cc2cccnc2)C1 (stereo not drawn) [Compound 10]	–	–	inhibition of enzyme activity [1]: no inhibition
Cc1nc(-c2ccc(C3CCCN3)nc2)sc1C (stereo not drawn) [Compound 22]	159	uncompetitive	–
Cc1cnc(-c2ccc(C3CCCNC3)nc2)s1 (stereo not drawn) [Compound 9]	83	competitive	–
CN1CCCC(c2cnc(-c3ncco3)cn2)C1 (stereo not drawn) [Compound 2]	4.8	sigmoidal Michaelis-Menten curve	–
c1cnc(CC2CCNC2)nc1 (stereo not drawn) [Compound 25]	31	non-competitive	–
CCc1ccc(C(=O)Nc2nncs2)s1 [Compound 35, reference compound]	–	–	inhibition of E. coli N5-CAIR mutase [1]: do not show inhibition
Nc1c([N+](=O)[O-])ncn1[C@@H]1O[C@H](COP(=O)(O)O)[C@@H](O)[C@H]1O [NAIR, 4-nitro-5-aminoimidazole ribonucleotide]	–	–	selectivity for AIR carboxylase over N5-CAIR mutase [2]: 1000 fold; Ki [3]: 0.34 nM; average melting temperature of N5-CAIR mutase with compound bound [4]: 75 ± 0.32 °C; Ki [5]: 500 nM
Cc1ccc(Nc2nnns2)cc1 [Compound 34, reference compound]	–	–	inhibition of E. coli N5-CAIR mutase [1]: do not show inhibition
